# Reference: patent US20160002250A1, “POLYMORPHS AND SALTS OF A COMPOUND” (FORUM Pharmaceuticals Inc., priority 2013, published 2016)
# Read-outs that look alike come from different tables or passages of the source.
# What was measured:
# [1] = pKa determination (Sirius GlpKa); assay type: physicochemical; details: 25° C.
# Method: Data were collected on a Sirius G1pKa instrument with a D-PAS attachment. Measurements were made at 25° C. in aqueous solution by UV and in methanol water mixtures by potentiometry. The titration media was ionic-strength adjusted (ISA) with 0.15 M KCl (aq). The values found in the methanol water mixtures were corrected to 0% co-solvent via a Yasuda-Shedlovsky extrapolation. The data were refined using Refinement Pro software v2.2. Prediction of pKa values was made using ACD/Labs software.
# [2] = Thermodynamic aqueous solubility; details: for solubility at 24 h: 25 °C, thermodynamic from solid
# Method: The suspension was equilibrated at 25° C. for 24 hours then the pH was measured and adjusted with either HCl or NaOH if it deviated by more than 0.3 units from the target pH. The suspension was then filtered through a glass fiber C filter. […] Different volumes of the standard, diluted and undiluted sample solutions were injected.
# Analysis was performed on an Agilent HP1100 series system equipped with a diode array detector and using ChemStation software. The following buffers were prepared to carry out the solubility analyses:
# pH 1.2—made up by adding 85.0 mL of 0.2M HCl(aq) to 50 mL of 0.2M KCl(aq) and making up to 200 mL. pH 4.5—made up by adding 2.99 g of NaC2H3O2.3H2O to 14.0 mL of 2N AcOH(aq) and making up to 1000 mL. pH 7.4—made up adding 39.1 mL of 0.2M NaOH(aq) to 50.0 mL of a 0.2M KH2PO4 and making up to 200 mL.
# [3] = Log P determination (potentiometric titration); assay type: physicochemical; details: octanol/ionic-strength adjusted (ISA) water
# From the text: Data were collected by potentiometric titration on a Sirius G1pKa instrument using three ratios of octanol:ionic-strength adjusted (ISA) water to generate Log P, Log Pion, and Log D values. The data were refined using Refinement Pro software. Prediction of Log P values was made using ACD/Labs software.
compound,measurement,setting,value
"CC1(C)OC(c2ccncc2)=C(c2ccc(OCc3cn4ncccc4n3)cc2)C1=O [Free Base, 4-(4-(imidazo[1,2-b]pyridazin-2-ylmethoxy)phenyl)-2,2-dimethyl-5-(pyridin-4-yl)furan-3(2H)-one]",pKa,[1]; read-out: pKa (first of two basic centers),3.7
same,pKa,[1]; read-out: pKa (second of two basic centers),2.9
same,solubility at 24 h,"[2]; aqueous buffer, pH 1.2, simulated gastric fluid",12200 µg/mL
same,solubility at 24 h,"[2]; aqueous buffer, pH 4.5, aqueous buffer",90 µg/mL
same,solubility at 24 h,"[2]; aqueous buffer, pH 7.4, aqueous buffer",50 µg/mL
same,pH of unfiltered saturated solution,[2]; pH point 1.2,1.24
same,pH of unfiltered saturated solution,[2]; pH point 4.5,4.71
same,pH of unfiltered saturated solution,[2]; pH point 7.4,7.44
same,pH of unfiltered saturated solution,[2]; pH point unadjusted aqueous,6.19
same,solubility at 24 h,"[2]; water (unadjusted aqueous), water",60 µg/mL
same,logP,[3],3
